Source: ChEMBL document CHEMBL3870357, “2-Hydroxypyridine-N-oxide-Embedded Aurones as Potent Human Tyrosinase Inhibitors” (ACS Med Chem Lett, 2017)

How the values were obtained:
[1] = Inhibition of mushroom TyM1 preincubated for 5 mins followed by addition of L-DOPA as substrate measured for 5 mins by spectroscopic method; design: species or system Agaricus bisporus
Tyrosinase [2] = target: T1, Tyrosinase (Homo sapiens, UniProt P14679); assay: Inhibition of tyrosinase in human MNT1 cell lysate pretreated prior to addition of L-DOPA as substrate measured after 3 hrs; assay type: cell-based
T1 sequence (P14679 whole entry): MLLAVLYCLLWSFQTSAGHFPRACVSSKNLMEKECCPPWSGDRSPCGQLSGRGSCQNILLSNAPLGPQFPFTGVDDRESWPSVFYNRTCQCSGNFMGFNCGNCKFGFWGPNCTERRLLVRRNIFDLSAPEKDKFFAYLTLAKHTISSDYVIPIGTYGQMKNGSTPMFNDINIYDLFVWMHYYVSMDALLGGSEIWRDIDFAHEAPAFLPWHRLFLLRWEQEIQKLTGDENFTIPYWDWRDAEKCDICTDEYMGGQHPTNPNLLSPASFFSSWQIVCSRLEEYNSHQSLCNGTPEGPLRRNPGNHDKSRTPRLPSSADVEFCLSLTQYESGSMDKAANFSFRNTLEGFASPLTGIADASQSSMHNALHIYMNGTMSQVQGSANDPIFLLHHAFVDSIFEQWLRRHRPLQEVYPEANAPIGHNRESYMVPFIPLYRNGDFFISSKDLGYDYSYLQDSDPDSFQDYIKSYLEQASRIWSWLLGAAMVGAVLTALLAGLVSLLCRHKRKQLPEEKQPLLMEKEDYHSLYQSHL

Tyrosinase [3] = target: T1, Tyrosinase; assay: Inhibition of tyrosinase in human MNT1 cells assessed as suppression of melanin biosynthesis measured after 96 hrs; assay type: cell-based
[4] = Cytotoxicity against human MNT1 cells
[5] = target: T2, Tyrosinase (Homo sapiens) (UniProt P14679); conditions: Sf9
T2 sequence (whole entry): T1 sequence (P14679 whole entry)

Tyrosinase [6] = target: T1, Tyrosinase; assay: Inhibition of recombinant human tyrosinase expressed in baculovirus infected Sf9 cells assessed as diphenolase activity using L-DOPA as substrate by UV-vis spectrophotometry

Row | IC50 [1] [µM] | IC50 (Tyrosinase [2]) [µM] | IC50 (Tyrosinase [3]) [µM] | Kic [5] [µM] | Ki (Tyrosinase [6]) [µM] | SMILES | IC50 [4] [µM]
1 | > 1000 | – | – | – | – | O=C1/C(=C/c2ccc(O)cc2O)Oc2cc(O)ccc21 | –
2 | 300 | – | – | – | – | O=C1/C(=C/c2ccc(O)cc2O)Oc2cc(O)cc(O)c21 | –
3 | – | 34 | 119 | 1.2 | – | O=C1/C(=C/c2ccc(=O)n(O)c2)Oc2cc(O)cc(O)c21 | > 500
4 | 1.5 | 16.6 | 85.3 | – | 0.35 | O=C1/C(=C/c2ccc(=O)n(O)c2)Oc2cc(O)ccc21 | > 500
5 | 9 | – | – | – | – | O=C1/C(=C/c2ccc(O)cc2O)Oc2cccc(O)c21 | –
6 | – | 30 | 120 | 1.02 | – | O=C1/C(=C/c2ccc(=O)n(O)c2)Oc2cccc(O)c21 | 80
7 | – | – | – | – | – | O=c1cc(CO)occ1O [KOJIC ACID] | > 80000
